According to patent publication US20250057826A1, “WEEKLY REGIMEN FOR HIV” (Gilead Sciences, Inc., priority 2023, published 2025):

How the values were obtained:
[1] = 2-compartment LEN population pharmacokinetic (PopPK) model from pooled clinical PK data (IV/oral/SC LEN); format: in vivo, human; conditions: column HTE
Excerpt: PK data were pooled from several clinical studies in healthy participants and people with HIV-1 who received intravenous (IV)/oral/SC LEN and a 2-compartment LEN population pharmacokinetic (PopPK) model with first-order absorption and linear elimination was built to simulate various weekly dosing regimens (loading+maintenance doses) that can achieve efficacious LEN concentrations rapidly and be maintained through the dosing interval. Various scenarios including 1-3 weeks of missed oral dosing were simulated to evaluate the forgiveness window; these simulations were performed with the PopPK model incorporating variability and covariate effects. The model pharmacokinetic parameters for lenacapavir are provided in Table 1 where CL=clearance; Fpo=oral bioavailability; Fsc=SC bioavailability; GI=gastrointestinal; HTE=heavily treatment experienced; IIV=interindividual variability; Ka=absorption rate constant; Kdir=direct absorption rate constant; Ktr=transit absorption rate constant; PK=pharmacokinetic; Q=intercompartmental CL; Vc=volume of central compartment; Vp=volume of peripheral compartment.

MT-4 cells = experiment: in vitro protein-adjusted 95% effective concentration derived from MT-4 cells (inhibitory quotient 4); format: cell-based; conditions: 4-fold greater than in vitro protein-adjusted 95% effective concentration from MT-4 cells
[2] = pharmacokinetics following single-dose administration of oral LEN 50-1800 mg; format: in vivo; conditions: single-dose oral LEN 50-1800 mg
HIV-1 = experiment: virologic suppression in Phase 2/3 clinical studies; format: in vivo, human; conditions: at mean trough concentration of 15.5 ng/mL (IQ4)

SMILES: CC(C)(C#Cc1ccc(-c2ccc(Cl)c3c(NS(C)(=O)=O)nn(CC(F)(F)F)c23)c([C@H](Cc2cc(F)cc(F)c2)NC(=O)Cn2nc(C(F)(F)F)c3c2C(F)(F)[C@@H]2C[C@H]32)n1)S(C)(=O)=O [lenacapavir, N—((S)-1-(3-(4-chloro-3-(methylsulfonamido)-1-(2,2,2-trifluoroethyl)-1H-indazol-7-yl)-6-(3-methyl-3-(methylsulfonyl)but-1-yn-1-yl)pyridin-2-yl)-2-(3,5-difluorophenyl)ethyl)-2-((3bS,4aR)-5,5-difluoro-3-(trifluoromethyl)-3b,4,4a,5-tetrahydro-1H-cyclopropa[3,4]cyclopenta[1,2-c]pyrazol-1-yl)acetamide]
- θ11: dose effect on Fpo ([1]; PopPK covariate effect): −0.414
- θ16: HV effect on Vp ([1]; PopPK covariate effect): 1.35
- θ19: pharmacoenhancer/booster effect on Fpo ([1]; PopPK covariate effect): 0.534
- θ20: SC 150 mg/mL effect on Vp ([1]; PopPK covariate effect): −0.795
- θ21: SC 150 mg/mL effect on Ktr ([1]; PopPK covariate effect): 0.433
- θ10: Fsc relative to IV ([1]; PopPK model parameter, SC bioavailability): 1.02
- θ6: SC Ktr ([1]; PopPK model parameter, SC): 0.00202 h⁻¹
- θ7: SC Kdir ([1]; PopPK model parameter, SC): 1.06e-06 s⁻¹
- θ8: SC fraction for direct absorption ([1]; PopPK model parameter, SC): 0.421
- θ2: Vc ([1]; PopPK model parameter): 67.9 L
- θ4: Vp ([1]; PopPK model parameter): 908 L
- θ5: Q ([1]; PopPK model parameter): 41.2 L/h
- θ9: Fpo relative to IV ([1]; PopPK model parameter, oral bioavailability): 0.0627
- θ3: PO Ka ([1]; PopPK model parameter, oral): 0.0286 h⁻¹
- σ1: residual proportion variability ([1]; PopPK residual error): 27.3% CV
- σ2: residual additive ([1]; PopPK residual error): 0.05 ng/mL
- θ15: weight effect on Vc and Vp ([1]; fixed allometric exponent): 1
- clearance ([1]; human, plasma, other: pooled intravenous, oral and subcutaneous, PopPK model parameter, read-out: θ1: CL (converted)): 60.3 mL/min
- ω11: IIV on CL ([1]; interindividual variability): 43.2 % CV
- ω22: IIV on Vc ([1]; interindividual variability): 0% CV
- ω33: IIV on Vp ([1]; interindividual variability): 85.4 % CV
- ω44: IIV on Ktr ([1]; interindividual variability): 32.4 % CV
- ω55: IIV on Ka ([1]; interindividual variability): 78.4 % CV
- ω66: IIV on Kdir ([1]; interindividual variability): 0% CV
- ω77: IIV on Fsc ([1]; interindividual variability): 38.9% CV
- inhibitory quotient 4 (IQ4) mean trough concentration (MT-4 cells): 15.5 ng/mL
- half-life ([2]; human, plasma): 10 to 13 days
- oral LEN exposure increase with dose [2]: less than dose proportionally
- virologic suppression (HIV-1): high rates of virologic suppression
